Source: patent publication US20250351832A1, “PHYTOCHEMICALS AS BIOPESTICIDES AND BIOSTIMULANTS” (KAY BEE BIO ORGANICS PVT. LTD., priority 2024, published 2025)
Where two headings read alike, the source gives them in different places.

Legend:
Alternaria alternata = assay: In vitro poisoned food technique against fungus (Ex. 20); assay type: cell-based; details: […]
tomato seedlings = assay: Response of tomato plants, greenhouse growth (Ex. 30); assay type: in vivo
chili seedlings = assay: Response of chili plants, greenhouse growth (Ex. 31); assay type: in vivo
Aphid [1] = system: Aphid
Mite [2] = details: Dose 1 ml/gm/lit.; 48 hrs
Mealy Bug [3] = details: Mealy Bug on cotton leaves, dose 1 ml/gm/lit., 48 Hrs.
Helicoverpa armigera [4] = details: Helicoverpa armigera on okra fruits, dose 1 ml/gm/lit., 72 Hrs.
Spodoptera litura [5] = details: 72 h, 1 mL or g/L
Thrips [6] = details: 48 h, 1 mL or g/L
Aphid [7] = details: 48 h, 1 mL or g/L
Mite [8] = details: mite on okra plants, green house, dose 1 ml/gm/lit. spray
Mealy Bug [9] = details: mealy bug on cotton plants, green house, dose 1 ml/gm/lit. spray
Helicoverpa armigera [10] = details: Helicoverpa armigera 3rd instar on chickpea plants, dose 1 ml/gm/lit. spray
Spodoptera litura [11] = details: Spodoptera litura 3rd instar on cabbage plants, dose 1 ml/gm/lit. spray
Thrips [12] = system: Thrips
[13] = Table 13, effect on plants, descriptive; cited from earlier work
Spodoptera litura [14] = assay: whole plant or invertebrate; details: 72 h
Thrips [15] = assay: whole plant or invertebrate; details: in Gossypium hirsutum, 48 h
Aphid [16] = assay: whole plant or invertebrate; details: 48 h
[17] = tomato seedlings, 10th day, dose 1 ml/gm/lit
[18] = tomato seedlings, dose 1 ml/gm/lit, 10th day
[19] = chili seedlings, dose 1 ml/gm/lit, 10th day
[20] = 48 hrs, corrected for water control
[21] = 72 hrs, corrected for water control
[22] = read-out: % Corrected Mortality at 48 Hrs.
[23] = read-out: % Mortality at 48 Hrs.

**Q.** For `C=C1C2CCC(C2)C1(C)C` (centres unmarked) [Camphene, camphene], which inhibition of growth at 1 mL or g/L (Alternaria alternata) is on record?
**A.** Its inhibition of growth at 1 mL or g/L is 18.8%.

**Q.** And the “CCI Pre” value (tomato seedlings)?
**A.** Its value is 11.85.

**Q.** What about the “Plant Height Pre” value (tomato seedlings) of the same compound?
**A.** The value was 5.75 cm.

**Q.** What about the “Stem Girth Pre” value (tomato seedlings) of the same compound?
**A.** Its value is 1.29 mm.

**Q.** And the “CCI 5th Day” value (tomato seedlings; 120 h)?
**A.** The value was 13.99.

**Q.** And the “Plant Height 5th Day” value (tomato seedlings; 120 h)?
**A.** Its value is 6.82 cm.

**Q.** What about the “Stem Girth 5th Day” value (tomato seedlings; 120 h) of the same compound?
**A.** The value was 1.49 mm.

**Q.** And the “CCI 10th Day” value (tomato seedlings; 240 h)?
**A.** Its value is 14.95.

**Q.** And the “Plant Height 10th Day” value (tomato seedlings; 240 h)?
**A.** The value was 7.34 cm.

**Q.** And the “Root Length % Increase over control” value (tomato seedlings; 240 h)?
**A.** The value was 14.19%.

**Q.** And the “Stem Girth 10th Day” value (tomato seedlings; 240 h)?
**A.** The value was 2.07 mm.

**Q.** And the “Plant Height % Increase over pre on 10th Day” value (tomato seedlings; [17])?
**A.** Its value is 27.65%.

**Q.** And the “Stem Girth % Increase over pre on 10th Day” value (tomato seedlings; [17])?
**A.** The value was 60.47%.

**Q.** What about the “CCI % Increase over pre on 10th Day” value (tomato seedlings; [18]) of the same compound?
**A.** Its value is 26.16%.

**Q.** What about the “Root Length (cm) 10th Day” value (tomato seedlings; [18]) of the same compound?
**A.** The value was 3.80 cm.

**Q.** And the “CCI Pre” value (chili seedlings)?
**A.** The value was 9.35.

**Q.** And the “Plant Height (cm) Pre” value (chili seedlings)?
**A.** The value was 3.94 cm.

**Q.** What about the “CCI 5th Day” value (chili seedlings; 120 h) of the same compound?
**A.** The value was 10.40.

**Q.** What about the “Plant Height (cm) 5th Day” value (chili seedlings; 120 h) of the same compound?
**A.** Its value is 5.97 cm.

**Q.** What about the “CCI 10th Day” value (chili seedlings; 240 h) of the same compound?
**A.** Its value is 12.02.

**Q.** And the “Plant Height (cm) 10th Day” value (chili seedlings; 240 h)?
**A.** Its value is 6.21 cm.

**Q.** And the “Root Lenght % Increase over control” value (chili seedlings; 240 h)?
**A.** Its value is 27.80%.

**Q.** And the “CCI % Increase over pre on 10th Day” value (chili seedlings; [19])?
**A.** Its value is 28.56%.

**Q.** And the “Plant Height % Increase over pre on 10th Day” value (chili seedlings; [19])?
**A.** Its value is 57.61%.

**Q.** And the “Root Lenght (cm) 10th Day” value (chili seedlings; [19])?
**A.** The value was 3.50 cm.

**Q.** What about the “Stem Girth % Increase over pre on 10th Day” value (chili seedlings; [19]) of the same compound?
**A.** The value was 43.80%.

**Q.** What about the “Total No. of dead insect at 48 Hrs.” value (Aphid [1]; 48 h) of the same compound?
**A.** Its value is 5.25.

**Q.** And the “% Corrected Mortality at 48 Hrs.” value (Aphid [1]; Dose 1 ml/gm/lit., 48 hrs)?
**A.** The value was 45.71%.

**Q.** And the “% Mortality at 48 Hrs.” value (Aphid [1]; Dose 1 ml/gm/lit., 48 hrs)?
**A.** The value was 52.50%.

**Q.** And the “% Corrected Mortality at 48 Hrs.” value (Mite [2])?
**A.** Its value is 35.14%.

**Q.** What about the “% Mortality at 48 Hrs.” value (Mite [2]) of the same compound?
**A.** Its value is 40.00%.

**Q.** What about the “% Mortality at 48 Hrs.” value (Mealy Bug [3]) of the same compound?
**A.** Its value is 45.00%.

**Q.** And the “% Corrected Mortality at 48 Hrs.” value (Mealy Bug [3]; corrected for water control)?
**A.** The value was 42.11%.

**Q.** What about the “% Mortality at 72 Hrs.” value (Helicoverpa armigera [4]) of the same compound?
**A.** The value was 62.50%.

**Q.** What about the “% Corrected Mortality at 72 Hrs.” value (Helicoverpa armigera [4]; corrected for water control) of the same compound?
**A.** The value was 62.50%.

**Q.** What about the “Total No. of dead insect at 72 Hrs.” value (Spodoptera litura [5]) of the same compound?
**A.** The value was 6.75.

**Q.** And the “Total No. of dead insect at 48 Hrs.” value (Thrips [6])?
**A.** Its value is 5.25.

**Q.** And the “Total No. of dead insect at 48 Hrs.” value (Aphid [7])?
**A.** The value was 50.00.

**Q.** What about the “% Mortality at 48 Hrs.” value (Mite [8]; 48 hrs after application) of the same compound?
**A.** The value was 40.00%.

**Q.** And the “% Corrected Mortality at 48 Hrs.” value (Mite [8]; [20])?
**A.** Its value is 36.84%.

**Q.** And the “% Mortality at 48 Hrs.” value (Mealy Bug [9]; 48 hrs after application)?
**A.** Its value is 52.50%.

**Q.** What about the “% Corrected Mortality at 48 Hrs.” value (Mealy Bug [9]; [20]) of the same compound?
**A.** The value was 47.22%.

**Q.** What about the “% Mortality at 72 Hrs.” value (Helicoverpa armigera [10]; 72 hrs after application) of the same compound?
**A.** The value was 60.00%.

**Q.** What about the “% Corrected Mortality at 72 Hrs.” value (Helicoverpa armigera [10]; [21]) of the same compound?
**A.** The value was 60.00%.

**Q.** What about the “% Mortality at 72 Hrs.” value (Spodoptera litura [11]; 72 hrs after application) of the same compound?
**A.** Its value is 65.00%.

**Q.** What about the “% Corrected Mortality at 72 Hrs.” value (Spodoptera litura [11]; [21]) of the same compound?
**A.** The value was 63.16%.

**Q.** And the “Total No. of dead insect at 48 Hrs.” value (Thrips [12]; 48 h)?
**A.** The value was 50.00.

**Q.** What about the “% Mortality at 48 Hrs.” value (Thrips [12]; thrips on cotton plants, greenhouse, dose 1 ml/gm/lit. spray, 48 hrs after application) of the same compound?
**A.** Its value is 50.00%.

**Q.** What about the “% Corrected Mortality at 48 Hrs.” value (Thrips [12]; thrips on cotton plants, greenhouse, dose 1 ml/gm/lit. spray, 48 hrs, corrected for water control) of the same compound?
**A.** The value was 44.44%.

**Q.** And the “Phytotonic Effect” value [13]?
**A.** Its value is “Trigger the nutrition”.

**Q.** What about the mortality at 1 mL or g/L (Spodoptera litura [14]; read-out: % Corrected Mortality at 72 Hrs.) of the same compound?
**A.** Its mortality at 1 mL or g/L is 65.8%.

**Q.** And the mortality at 1 mL or g/L (Spodoptera litura [14]; read-out: % Mortality at 72 Hrs.)?
**A.** Its mortality at 1 mL or g/L is 67.5%.

**Q.** What about the mortality at 1 mL or g/L (Thrips [15]; [22]) of the same compound?
**A.** The mortality at 1 mL or g/L was 45.7%.

**Q.** What about the mortality at 1 mL or g/L (Thrips [15]; [23]) of the same compound?
**A.** The mortality at 1 mL or g/L was 52.5%.

**Q.** And the mortality at 1 mL or g/L (Aphid [16]; [22])?
**A.** The mortality at 1 mL or g/L was 41.2%.

**Q.** What about the mortality at 1 mL or g/L (Aphid [16]; [23]) of the same compound?
**A.** The mortality at 1 mL or g/L was 50%.
